Residues, ends and D or L forms follow the SMILES beside them.
Columns and labels:
[1] = system: Human immunodeficiency virus 1; assay: Binding affinity to HIV1 His-tagged N-terminal heptad repeat of envelope glycoprotein gp41 assessed as recovery of N36-drug complex at 10 uM after 2 hrs by LC-MS analysis
[2] = system: Human immunodeficiency virus 1; assay: Binding affinity to HIV1 His-tagged N-terminal heptad repeat of envelope glycoprotein gp41 assessed as recovery of N36-drug complex at 6 uM after 2 hrs by LC-MS analysis
[3] = system: Human immunodeficiency virus 1; assay: Thermal stability of HIV1 envelope glycoprotein gp41 His-tagged N-terminal heptad repeat N36-drug complex assessed as thermal unfolding transition state by measuring molar ellipticity at 4 to 90 degC by circular dichroic spectra analysis
[4] = system: Human immunodeficiency virus 1; assay: Antiviral activity against HIV1 NL4-3 harboring gp41 D36G mutant infected in human HeLa cells expressing CD4-LTR-beta-gal assessed as inhibition of viral replication after 48 hrs by MAGI assay; type: functional, organism-based
[5] = system: Human immunodeficiency virus 1; assay: Binding affinity to HIV1 His-tagged N-terminal heptad repeat of envelope glycoprotein gp41 assessed as recovery of N36-drug complex at 0.6 uM after 2 hrs by LC-MS analysis
[6] = system: Human immunodeficiency virus 1; assay: Binding affinity to HIV1 His-tagged N-terminal heptad repeat of envelope glycoprotein gp41 assessed as recovery of N36-drug complex at 1 uM after 2 hrs by LC-MS analysis

Structure (SMILES)	Activity [1]	Activity [2]	Tm [3]	EC50 [4]	Activity [5]	Activity [6]
CC[C@H](C)[C@H](NC(=O)[C@H](CC(C)C)NC(=O)[C@H](CCC(=O)O)NC(=O)[C@H](CCC(=O)O)NC(=O)[C@@H](NC(=O)[C@H](CCCCN)NC(=O)[C@H](CCCCN)NC(=O)[C@@H](NC(=O)[C@H](Cc1ccc(O)cc1)NC(=O)[C@H](CCC(=O)O)NC(=O)[C@H](CCC(=O)O)NC(=O)[C@@H](NC(=O)[C@H](CCCCN)NC(=O)[C@H](CCCCN)NC(=O)[C@H](CC(=O)O)NC(=O)[C@H](Cc1c[nH]c2ccccc12)NC(=O)[C@H](CCC(=O)O)NC(=O)[C@H](CCC(=O)O)NC(=O)[C@H](Cc1c[nH]c2ccccc12)NC(C)=O)[C@@H](C)CC)[C@@H](C)O)[C@@H](C)CC)C(=O)N[C@@H](CCCCN)C(=O)N[C@@H](CCCCN)C(=O)N[C@@H](CCCNC(=N)N)C(=O)N[C@@H](CCC(=O)O)C(=O)N[C@@H](CCC(=O)O)C(=O)N[C@@H](CCC(N)=O)C(=O)N[C@@H](CCC(N)=O)C(=O)N[C@@H](CCCCN)C(=O)N[C@@H](CCCCN)C(=O)N[C@@H](CC(N)=O)C(=O)N[C@@H](CCC(=O)O)C(=O)N[C@@H](CCC(=O)O)C(=O)N[C@@H](CCC(=O)O)C(=O)N[C@@H](CC(C)C)C(=O)N[C@@H](CCCCN)C(=O)N[C@@H](CCCCN)C(N)=O (Ac-WEEWDKKIEEYTKKIEELIKKREEQQKKNEEELKK-NH2)	0.3%	0.1%	52.3 °C	280 nM	2.5%	0%
CC[C@H](C)[C@H](NC(=O)[C@H](CC(C)C)NC(=O)[C@H](CCC(=O)O)NC(=O)[C@H](CCC(=O)O)NC(=O)[C@@H](NC(=O)[C@H](CCCCN)NC(=O)[C@H](CCCCN)NC(=O)[C@@H](NC(=O)[C@H](Cc1ccc(O)cc1)NC(=O)[C@H](CCC(=O)O)NC(=O)[C@H](CCC(=O)O)NC(=O)[C@@H](NC(=O)[C@H](CCCCN)NC(=O)[C@H](CCCCN)NC(=O)[C@H](CC(=O)O)NC(=O)[C@H](Cc1c[nH]c2ccccc12)NC(=O)[C@H](CCC(=O)O)NC(=O)[C@H](CCC(=O)O)NC(=O)[C@H](Cc1c[nH]c2ccccc12)NC(C)=O)[C@@H](C)CC)[C@@H](C)O)[C@@H](C)CC)C(=O)N[C@@H](CCCCN)C(=O)N[C@@H](CCCCN)C(=O)N[C@@H](CCC(N)=O)C(=O)N[C@@H](CCC(=O)O)C(=O)N[C@@H](CCC(=O)O)C(=O)N[C@@H](CCC(N)=O)C(=O)N[C@@H](CCC(N)=O)C(=O)N[C@@H](CCCCN)C(=O)N[C@@H](CCCCN)C(=O)N[C@@H](CC(N)=O)C(=O)N[C@@H](CCC(=O)O)C(=O)N[C@@H](CCC(=O)O)C(=O)N[C@@H](CCC(=O)O)C(=O)N[C@@H](CC(C)C)C(=O)N[C@@H](CCCCN)C(=O)N[C@@H](CCCCN)C(N)=O (Ac-WEEWDKKIEEYTKKIEELIKKQEEQQKKNEEELKK-NH2)	0.9%	0.5%	65.9 °C	2.4 nM	6.1%	2.1%
